According to US20240041976A1, “COMPOSITION AND USE” (priority 2020, published 2024):
No end group written: not given here.

Experiments:
Experiment in all cases: microbe, parasite or virus in culture
[1] = system: S. haemolyticus 4068; conditions: for MIC of the component in combination: 4068
Description: (§1) Growth inhibition assays were performed in 96-well microtiter plates as described previously (Chi and Holo, 2018, supra). Briefly, 135 μl of TSB were dispensed in each well of a microtiter plate (according to the number of bacterial strains tested) except in the wells of the first row. The antimicrobials were diluted in TSB to working concentrations in a final volume of 285 μl and dispensed in the wells of the first row. The working concentrations were 100 μg/μl for garvicin KS, 10 μg/μl for micrococcin P1 and 1 mg/ml for penicillin G. From the first row, 150 μl of the antimicrobials were then serially diluted (two-fold dilutions) in a sequential fashion until the last row of the plate. Finally, 15 μl of a fresh O/N culture of each strain were added in the appropriate wells to reach a final volume of 150 μl in each well. The plates were then incubated at 37° C. for 24 h. The growth inhibition was expressed as minimum inhibitory concentration (MIC50), which refers to the minimum concentration of the antimicrobial needed to reduce at least 50% of the microbial growth compared to the untreated control. The MIC50 was assessed by optical density readings at 600 nm (O.D.600).
(§2) Synergistic interactions between antimicrobials were determined using the fractional inhibition concentration (FIC). The FIC values were calculated as follows: the sum of the FIC =FICa+FICb+FICc, where the FICa means MIC of A in combination/MIC of A alone, FICb means MIC of B in combination/MIC of B, and FICc means MIC of C in combination/MIC of C alone. Effects were considered as synergistic if FIC was ≤0.5 for two components mixture and ≤0.75 for three components mixture.
(§3) Bacteriocins and antimicrobial assays. […] These bacteriocins were all solubilized in 0.1% (vol/vol) trifluoracetic acid (TFA; Sigma-Aldrich). […] Cell growth inhibition assays and antimicrobial synergy determination was performed in line with Example 1.
(§4) To investigate whether there was synergy between the three bacteriocins (K1-EJ, GarKS and MP1), a checkboard antimicrobial assay was performed. The selected strains were treated for 5, 24 and 48 h with a range of concentrations of K1-EJ, GarKS and MP1 alone or in different combinations.

[2] = system: S. haemolyticus 4069; conditions: for MIC of the component in combination: 4069
Description: as §1, §2, §3, §4

[3] = system: S. haemolyticus 4071; conditions: for MIC of the component in combination: 4071
Description: as §1, §2, §3, §4

[4] = system: S. haemolyticus 4072; conditions: for MIC of the component in combination: 4072
Description: as §1, §2, §3, §4

[5] = system: S. haemolyticus 4073; conditions: for MIC of the component in combination: 4073
Description: as §1, §2, §3, §4

Work on “MKFKFNPTGTIVKKLTQYEINWYKQQYGRYPWERPVA [Hybrid K1-EJ]” yielded an MIC ([1]; 4068, 5 h) of 0.78 µg/mL, an MIC ([1]; 4068, 24 h) of over 100 µg/mL and an MIC ([1]; 4068, 48 h) of over 100 µg/mL. For the same sequence, the “MIC of the component in combination” value ([1]; 5 h, K1-EJ + GarKS) was 0.83 µg/mL, the “MIC of the component in combination” value ([1]; 5 h, K1-EJ + GarKS + MP1) was 0.32 µg/mL and the “MIC of the component in combination” value ([1]; 5 h, K1-EJ + MP1) was 0.2 µg/mL. The “MIC of the component in combination” value ([1]; 24 h, K1-EJ + GarKS) was 3.1 µg/mL, the “MIC of the component in combination” value ([1]; 24 h, K1-EJ + GarKS + MP1) was 0.78 µg/mL and the “MIC of the component in combination” value ([1]; 24 h, K1-EJ + MP1) was 0.78 µg/mL. The “MIC of the component in combination” value ([1]; 48 h, K1-EJ + GarKS) was 6 µg/mL, the “MIC of the component in combination” value ([1]; 48 h, K1-EJ + GarKS + MP1) was 2.8 µg/mL and the “MIC of the component in combination” value ([1]; 48 h, K1-EJ + MP1) was 0.72 µg/mL. For the same sequence, the MIC ([2]; 4069, 5 h) was 0.78 µg/mL, the MIC ([2]; 4069, 24 h) was 0.78 µg/mL and the MIC ([2]; 4069, 48 h) was over 100 µg/mL. The “MIC of the component in combination” value ([2]; 5 h, K1-EJ + GarKS) was 1.4 µg/mL, the “MIC of the component in combination” value ([2]; 5 h, K1-EJ + GarKS + MP1) was 0.68 µg/mL and the “MIC of the component in combination” value ([2]; 5 h, K1-EJ + MP1) was 1.5 µg/mL. For the same sequence, the “MIC of the component in combination” value ([2]; 24 h, K1-EJ + GarKS) was 6 µg/mL, the “MIC of the component in combination” value ([2]; 24 h, K1-EJ + GarKS + MP1) was 3.3 µg/mL and the “MIC of the component in combination” value ([2]; 24 h, K1-EJ + MP1) was 23 µg/mL. The “MIC of the component in combination” value ([2]; 48 h, K1-EJ + GarKS) was 6.5 µg/mL, the “MIC of the component in combination” value ([2]; 48 h, K1-EJ + GarKS + MP1) was 5.8 µg/mL and the “MIC of the component in combination” value ([2]; 48 h, K1-EJ + MP1) was 48 µg/mL. For the same sequence, the MIC ([3]; 4071, 5 h) was 0.78 µg/mL, the MIC ([3]; 4071, 24 h) was over 100 µg/mL and the MIC ([3]; 4071, 48 h) was over 100 µg/mL. The “MIC of the component in combination” value ([3]; 5 h, K1-EJ + GarKS) was 1.6 µg/mL, the “MIC of the component in combination” value ([3]; 5 h, K1-EJ + GarKS + MP1) was 0.72 µg/mL and the “MIC of the component in combination” value ([3]; 5 h, K1-EJ + MP1) was 0.42 µg/mL. The “MIC of the component in combination” value ([3]; 24 h, K1-EJ + GarKS) was 12 µg/mL, the “MIC of the component in combination” value ([3]; 24 h, K1-EJ + GarKS + MP1) was 1.6 µg/mL and the “MIC of the component in combination” value ([3]; 24 h, K1-EJ + MP1) was 1.4 µg/mL. The “MIC of the component in combination” value ([3]; 48 h, K1-EJ + GarKS) was 24 µg/mL, the “MIC of the component in combination” value ([3]; 48 h, K1-EJ + GarKS + MP1) was 3.3 µg/mL and the “MIC of the component in combination” value ([3]; 48 h, K1-EJ + MP1) was 3 µg/mL. The MIC ([4]; 4072, 5 h) was 0.78 µg/mL, the MIC ([4]; 4072, 24 h) was over 100 µg/mL and the MIC ([4]; 4072, 48 h) was over 100 µg/mL. The “MIC of the component in combination” value ([4]; 5 h, K1-EJ + GarKS) was 1.5 µg/mL, the “MIC of the component in combination” value ([4]; 5 h, K1-EJ + GarKS + MP1) was 0.68 µg/mL and the “MIC of the component in combination” value ([4]; 5 h, K1-EJ + MP1) was 0.36 µg/mL. The “MIC of the component in combination” value ([4]; 24 h, K1-EJ + GarKS) was 12 µg/mL, the “MIC of the component in combination” value ([4]; 24 h, K1-EJ + GarKS + MP1) was 1.6 µg/mL and the “MIC of the component in combination” value ([4]; 24 h, K1-EJ + MP1) was 1.5 µg/mL. The “MIC of the component in combination” value ([4]; 48 h, K1-EJ + GarKS) was 13 µg/mL, the “MIC of the component in combination” value ([4]; 48 h, K1-EJ + GarKS + MP1) was 5.8 µg/mL and the “MIC of the component in combination” value ([4]; 48 h, K1-EJ + MP1) was 1.6 µg/mL. It also gave an MIC ([5]; 4073, 5 h) of 0.78 µg/mL, an MIC ([5]; 4073, 24 h) of over 100 µg/mL and an MIC ([5]; 4073, 48 h) of over 100 µg/mL. The “MIC of the component in combination” value ([5]; 5 h, K1-EJ + GarKS) was 1.7 µg/mL, the “MIC of the component in combination” value ([5]; 5 h, K1-EJ + GarKS + MP1) was 0.33 µg/mL and the “MIC of the component in combination” value ([5]; 5 h, K1-EJ + MP1) was 0.2 µg/mL. The “MIC of the component in combination” value ([5]; 24 h, K1-EJ + GarKS) was 6.3 µg/mL, the “MIC of the component in combination” value ([5]; 24 h, K1-EJ + GarKS + MP1) was 0.78 µg/mL and the “MIC of the component in combination” value ([5]; 24 h, K1-EJ + MP1) was 0.36 µg/mL. The “MIC of the component in combination” value ([5]; 48 h, K1-EJ + GarKS) was 12 µg/mL, the “MIC of the component in combination” value ([5]; 48 h, K1-EJ + GarKS + MP1) was 1.6 µg/mL and the “MIC of the component in combination” value ([5]; 48 h, K1-EJ + MP1) was 0.85 µg/mL.
